Values quoted from earlier work as cited in patent US20260248929A1, “MINOXIDIL-CROSSLINKED INJECTABLE HYDROGELS FOR LOCAL AND SUSTAINED INTRADERMAL DELIVER Y” (THE TRUSTEES OF THE UNIVERSITY OF PENNSYLVANIA, priority 2023, published 2026).

Details: topical application to skin

- minoxidil absorbed from a topical application: 1%
SMILES: Nc1cc(N2CCCCC2)nc(N)[n+]1[O-] [minoxidil]
